Converted amounts (≈) assume the structure as drawn.
Assays:
[1] = 20° C.; cited from earlier work
[2] = Water solubility (20° C.); type: physicochemical
[3] = amine content of the aqueous phase after phase separation of heated MCA/DMCA mixture in water; type: physicochemical; details: 3 M MCA:DMCA 1:3 wt./wt. in water, phases separated
Experimental: Aqueous samples containing MCA and/or DMCA were analysed by UPLC-MS/MS. The UPLC apparatus was a Waters ACQUITY° system. Injection volume was 3 μl. Mobile phase A: 10 mM ammonium acetate, 0.1 wt. % formic acid in water. Mobile phase B: methanol. Column: ACQUITY UPLC® HSB T3, 1.8 μ2.1×50 mm. Column temperature: 30° C. Gradient (Table 1). The mass spectrometer was an AB SCIEX™ API 3200 apparatus.
A mixture (200 ml) of MCA and DMCA (total amine concentration is 3 M; ratio MCA:DMCA is 1:3 wt./wt.≈1:2.67 mol/mol; total absolute amount MCA is 92.8 g/l; total amount of DMCA is 278.4 g/l) in water was heated at various temperatures for 24 h during which phase separation occurred. The phases were separated and the aqueous phase was analysed for determining the amine content. As can be observed from the data in Table 9, the amount of amine decreases with increasing temperature.

[4] = J. Sangster, J. Phys. Chem. Ref. Data 18, 111, 1989; cited from earlier work

For `CN(C)C1CCCCC1` [DMCA, N,N-dimethylcyclohexylamine], the Water solubility [1] is given as 54 g/L and the solubility [2] is given as ~480 mM (≈ 61.1 mg/mL).
For `CNC1CCCCC1` [MCA, N-methylcyclohexylamine], the “amine content of aqueous phase (MCA)” value ([3]; heated 24 h at 40 ° C.) was 6940 mg/L, the “amine content of aqueous phase (MCA)” value ([3]; heated 24 h at 50 ° C.) was 5630 mg/L and the “amine content of aqueous phase (MCA)” value ([3]; heated 24 h at 60 ° C.) was 5090 mg/L. For the same molecule, the “amine content of aqueous phase (MCA)” value ([3]; heated 24 h at 70 ° C.) was 4520 mg/L.
In the case of `NC1CCCCC1` [cyclohexylamine], the “measured log P” value [4] is listed as 1.49±0.10.
